Laboratory results published in patent publication EP0975351B1, “TREATMENT OF MULTIPLE SCLEROSIS THROUGH INGESTION OF COPOLYMER-1” (YEDA RESEARCH AND DEVELOPMENT CO. LTD., priority 1997, dated 1998).

Experiments:
[1] = system: T-cell line derived from spleens of glatiramer acetate fed rats; assay: Cytokine assay of T-cell line from spleens of fed rats (ELISA); format: cell-based; settings: rat line cultured with glatiramer acetate as antigen (Figure 6)
Protocol: Isolation of glatiramer acetate specific T cell lines - Lewis rats were fed 5 times with 1 mg glatiramer acetate and (SJUJ x BALB/c)F, mice 7 times with 250 µg glatiramer acetate, at intervals of 2-3 days. Four to twelve days after the last feeding animals were sacrificed and their spleens removed.
Spleen cells of 3 animals were pooled and incubated (50 x 10^6/plate) with glatiramer acetate (500 µg) in medium containing 1 % autologous serum for 4 days. Every 14-21 days cells (4-6 x 10^6/plate) were restimulated by 3 days exposure to copolymer-1 (500 µg) presented on syngeneic irradiated (3000 rad) rat thymocytes (100 x 10^6/plate) or mouse splenocytes (50 x 10^6/plate). Stimulation was followed by propagation in 10% supernatant of Con A activated normal mouse spleen cells as T cell growth factor (TCGF).
Cytokine Assay - T cells of rat line (0.5 x 10^6/ml) were incubated with irradiated thymocytes (10 x 10^6) with or without the indicated antigen (50µg glatiramer acetate; 5µg Con A). Cells were cultured for 24 hours in RPMI 1640 supplemented with 10% FCS for IL-2, TNFα, IL-4 and IL-10-measurements and in serum free medium - DCCM-1 (Biological Industries, Kibbutz Beit Haemek, Israel) for 72 hours for TGFβ measurement.
Cytokine levels in supernatants were measured in a quantitative ELISA using pairs of monoclonal antibodies specific for the corresponding cytokines.

[2] = system: spleen cell cultures derived from mice; assay: Cytokine secretion assay of spleen cells from fed mice (ELISA); format: cell-based; settings: versus PBS fed control
Protocol: Induction and Assessment of EAE - Mice were injected with 200 µg GPBP emulsified in an equal volume of complete Freund's adjuvant (CFA) containing 4 mg/ml mycobacterium tuberculosis (H37Ra) (Difco Lab, Detroit, Mich.). The emulsion at a total volume of 0.1 ml was injected into all four footpads. Immediately after and 24 hours later, pertussis toxin (250ng/mouse) (Sigma) was injected intravenously.
Induction of Oral Tolerance - Mice were fed with 250 µg GPBP or glatiramer acetate dissolved in phosphate buffered saline (PBS) on days -7, -5, -3, 0, 2, 4 and 6 by gastric intubation with an 18-gauge stainless steel feeding needle (Thomas). EAE was induced on day 0.
Cytokine Secretion Assay - Spleens were removed 10-11 days after EAE induction and cells of 3 mice from each group were pooled. Cells (5x10^6/ml) were cultured in duplicates in 24 well plate in RPMI 1640 supplemented with 10% FCS (Fetal Calf Serum) in the presence or absence of antigen (GPBP 100 Fg/ml). Supematants were harvested after 24-40 hr of culture. Quantitative ELISA for IL-2, IFN-γ, IL-4, IL-6 and IL-10 were performed using paired mAbs specific for the corresponding cytokines (Pharmingen, La Jolla, CA) according to the manufacturer's instructions.

[3] = system: EAE; assay: Induction of EAE in Rhesus monkeys, oral enteric-coated capsules, clinical scoring (Example 3); format: in vivo
Protocol: Glatiramer acetate was provided by Teva Pharmaceutical Industries Ltd. in an enteric-coated hard gelatin capsule comprising two dosage levels: 1 mg of glatiramer acetate and 20 mg of glatiramer acetate. Each dosage level was formulated using mannitol, and coated with Eudragit L30D55. Placebo or control capsules comprised capsules containing 5 mg of sugar.
3 Rhesus monkeys were treated as follows: One monkey served as control and was fed with placebo capsules (containing 5mg glucose only). The second and third monkeys were fed with glatiramer acetate containing capsules at a dose of 1mg/feeding and 20mg/feeding, respectively. Animals were fed every other day for a total of 10 feedings: 5 times prior to disease induction (immunization on day 0) and then 5 times after immunization.
Disease was induced on day 0 by an intradermal injection of 8mg bovine - MBP and 3 mg H37Ra M. tuberculosis in FCA into the hind footpads, total injected volume between 0.1 and 0.15 ml per footpad. The animals were followed for clinical manifestations of EAE, a variety of serum and CSF immunological markers and spinal cord and cranial MRI's.

[4] = system: EAE; assay: Dose response study of oral Copolymer-1 in rats (EAE); format: in vivo; settings: for Mean Score ±SD: PBS control 1.32±0.64; for Incidence: PBS control 10/11; for Mean Onset: PBS control 13.1; for Suppression* (%): calculated by mean score
Protocol: Rats were immunized with 25 µg of GPBP emulsified 1:1 in CFA containing 4 mg/ml. H37Ra. The emulsion at a total volume of 0.1 ml. was injected into the two hindfoot pads.
(§1) Animals were examined daily from day 10 post induction for signs of disease. EAE was scored as follows: 0-no disease, 1-limp tail, 2-hind limb paralysis, 3-paralysis of all four limbs, 4-moribund condition, 5-death.
Rats were fed with 1 mg GPBP or glatiramer acetate dissolved in PBS by gastric intubation using a sterile feeding tube (Uno Plast, Denmark). Rats were fed 5 times (total dose of 5 mg) before disease induction at intervals of 2-3 days. EAE was induced two days after the last feeding. Control mice and rats were mock fed with PBS.
Rats were fed 5 times with 0.5, 1 or 2 mg glatiramer acetate according to the established protocol (see Materials and Methods, above) and then challenged for EAE induction.

[5] = system: exacerbating-remitting multiple sclerosis; settings: daily subcutaneous injections, phase III clinical trials; cited from earlier work
[6] = system: EAE; assay: Suppression of MSCH-induced EAE in mice by oral administration, dose response; format: in vivo, (SJL/JxBALB/c)F1 mice; settings: days -7 to 6 (Figure 5)
Protocol: as §1
Induction of EAE - (SJL/xBALB/c)F1 mice were injected in all four footpads with 2mg mouse spinal cord homogenated (MSCH) emulsified in 1:1 ratio in CFA containing 1 mg/ml H37Ra (Difco Lab, Detroit, Mich). Pertussis toxin (250 ng/mouse, Sigma) was twice injected intravenously, once immediately after and again 48 hours later.
(SJL/JxBALB/c)F1 mice were fed 7 times with 0.1, 0.25 or 0.5 mg glatiramer acetate on days -7; -5; -3; 0; 2; 4 and 6 by gastric intubation. EAE was induced on day 0 by the injection of MSCH.

glatiramer acetate
cytokine secretion response of T-cell line [1]: secreted IL-2, some IL-10 and TGFβ but not TNFα or IL-4 | IFN-γ produced in response to GPBP stimulation [2]: lower than in control groups | IL-2 produced in response to GPBP stimulation [2]: lower than in control groups | day of first (minimal) symptoms ([3]; animal 18497, 1mg/feeding, 10 feedings): 25 days | time until clinical signs dropped to zero ([3]; animal 18497, after day 33 fed 20mg capsules 5 times on alternate days, remained zero until day 60): ≤ 3 days | clinical symptoms ([3]; animal 18498, 20mg/feeding, 10 feedings, 60 day observation period, placebo animal score 4+ , sacrificed day 28): did not show any significant clinical symptoms | Mean Score ±SD ([4]; rats fed 5 times 0.5 mg): 0.95±0.57 | Incidence ([4]; rats fed 5 times 0.5 mg): 9/11 | Mean Onset ([4]; rats fed 5 times 0.5 mg): 13.5 | Suppression* (%) ([4]; rats fed 5 times 0.5 mg): 28% | Mean Score ±SD ([4]; rats fed 5 times 1 mg): 0.64±0.50 | Incidence ([4]; rats fed 5 times 1 mg): 7/11 | Mean Onset ([4]; rats fed 5 times 1 mg): 15.1 | Suppression* (%) ([4]; rats fed 5 times 1 mg): 51% | Mean Score ±SD ([4]; rats fed 5 times 2 mg): 0.91±0.70 | Incidence ([4]; rats fed 5 times 2 mg): 8/11 | Mean Onset ([4]; rats fed 5 times 2 mg): 13.1 | Suppression* (%) ([4]; rats fed 5 times 2 mg): 31% | progression of disability and relapse rate [5]: slow progression of disability and reduce the relapse rate | suppression of EAE ([6]; mice fed 7 times 0.1 mg): most effective dose | suppression of EAE ([6]; mice fed 7 times 0.25 mg): less effective | suppression of EAE ([6]; mice fed 7 times 0.5 mg): completely inactive
